≈ marks a conversion by molar mass, not a printed value. Read-outs that look alike come from different tables or passages of the source.
Columns and labels:
[1] = cited from earlier work
[2] = effective plasma concentration and effective oral dose in patients; format: in vivo; conditions: Homo sapiens, cancer indications, 1.5 to 3 times that of cardiac indications, read-out: median effective concentration (EC50) of free drug
[3] = tested on: panel of 10 cancer cell lines; assay: cytotoxicity against a panel of 10 cancer cell lines; format: cell-based; conditions: read-out: median IC50
[4] = tested on: Na+/K+-ATPase; conditions: Erdmann E 1978; cited from earlier work
[5] = tested on: HIF-1α; assay: HIF-1α induced under normoxia by PHD inhibitor L-mimosone, Hep3B Western blot; format: cell-based, human; conditions: 200 μM L-mimosone, 18 h
Description: Abundance of HIF-1α and β-actin was determined by western blotting.

[6] = tested on: A549 cell line; assay: anti-proliferation MTS assay in A549 cell line; format: cell-based; conditions: Homo sapiens
Description: (§1) Anti-prolerafitive IC50 values were determined by MTS assay using an A549 cell line. Na^+/K^+-ATPase inhibition IC50 values were obtained using enzyme preparation from dog kidney (Sigma).

[7] = tested on: HIF-1α; assay: Western blot using anti-HIF-1α antibody (Example XVI); format: cell-based
[8] = at therapeutic plasma level; cited from earlier work
[9] = tested on: Panc-1 human pancreatic xenograft; assay: Panc-1 human pancreatic tumor xenograft in nude mice; format: in vivo; conditions: Panc-1; BNC-4 15 mg/ml s.c. pump; Gemcitabine 40 mg/kg q3d×4
Excerpt: (§2) Female nude mice (nu/nu) between 5 and 6 weeks of age weighing approximately 20 g were implanted subcutaneously (s.c.) by trocar with fragments of human tumors harvested from s.c. grown tumors in nude mice hosts. […] Each group contains 8-10 mice, each of which was ear tagged and followed throughout the experiment.
(§3) The administration of drugs or controls began the day the animals were pair-matched (Day 1). […] Mice were weighed and tumor measurements were obtained using calipers twice weekly, starting Day 1. These tumor measurements were converted to mg tumor weight by standard formula, (W^2×L)/2. The experiment is terminated when the control group tumor size reached an average of about 1 gram. Upon termination, the mice were weighed, sacrificed and their tumors excised. The tumors were weighed and the mean tumor weight per group was calculated.
(§4) The control animals received pumps containing vehicle (50% DMSO in DMEM). The mice treated with standard chemotherapy agent received intra-peritoneal injections of Gemcitabine at 40 mg/kg every 3 days for 4 treatments (q3d×4). Each data point represent average tumor weight (n=8) and error bars indicate SEM.
as §4

[10] = tested on: rats; conditions: cited from earlier work
[11] = biological target: T1, Na+/K+-ATPase (Canis lupus familiaris, UniProt P50997); assay: Na+/K+-ATPase inhibition; format: biochemical, dog; conditions: read-out: IC50 for inhibition of Na+/K+-ATPase
T1 construct: enzyme preparation from dog kidney (Sigma); purchased Sigma; host or cells: dog kidney tissue
Description: as §1

[12] = tested on: Caki-1 human renal cancer xenograft; format: in vivo, nude mice; conditions: Caki-1
Excerpt: as §2, §3

[13] = cited from earlier work; remark: listed apart in the source
[14] = tested on: cats; conditions: cited from earlier work
[15] = tested on: A549 Sentinel Line; assay: Sentinel Line reporter assay (beta-gal, FACS); format: cell-based, human; conditions: A549 sentinel line, with Gemcitabine, 40 hrs
Description: The expression level of beta-galactosidase gene in sentinel lines was determined by using a fluorescent substrate fluorescein di-B-D-Galactopyranside (FDG, Marker Gene Tech, #M0250) introduced into cells by hypotonic shock. Cleavage by beta-galactosidase results in the production of free fluorescein, which is unable to cross the plasma membrane and is trapped inside the beta-gal positive cells. Briefly, the cells to be analyzed are trypsinized, and resuspended in PBS containing 2 mM FDG (diluted from a 10 mM stock prepared in 8:1:1 mixture of water: ethanol: DMSO). The cells were then shocked for 4 minutes at 37° C. and transferred to FACS tubes containing cold 1×PBS on ice. Samples were kept on ice for 30 minutes and analyzed by FACS in FLI channel.
Sentinel Line cells with beta-galactosidase reporter gene were plated at 1×10^5 cells/10 cm dish. […] After 40 hrs, the cells were trypsinized and the expression level of reporter gene was determined by FDG loading.
The reporter activity was measured by FACS analysis.

[16] = steady state serum level of about 50 ng/mL, xenograft nude mouse model
[17] = tested on: VEGF; assay: VEGF secretion in tumor cells; format: cell-based; conditions: FIG. 8
[18] = 12 healthy individuals, 2×0.5 mg for 8 days, radio-immunoassay

C[C@@H]1OC(OC2C=C3CCC4C(CC[C@]5(C)[C@@H](c6ccc(=O)oc6)CC[C@]45O)[C@@]3(C)CC2)[C@H](O)[C@H](O)[C@H]1O (stereo partly drawn) [BNC-4, proscillaridin]
tolerability in cancer patients ([1]; 0.25 to 0.5 mg/d i.v. for four days before surgery, 50 patients): well tolerated by all cancer patients with no appearance of either gastrointestinal or cardiac side effects | patients exhibiting side-effects ([1]; 47 clinical studies, 3740 patients): about 6.3% | reported cases where therapy could be resumed after a brief hiatus ([1]; 47 clinical studies): > 95% | patients taken off the treatment for negative side effects ([1]; 1067 patients observed for up to 3 years): 0.7% | well tolerated dose ([1]; cardiac patients): up to 1.5 mg/d | well tolerated dose ([1]; cardiac patients, listed as Proscillaridin A): ~1.5 mg/day | well tolerated dose ([1]; cardiologically-normal individuals): up to 3.5 mg/d | dose producing typical intoxication symptoms ([1]; healthy individuals): above 4 mg p.o./d | side effects ([1]; healthy volunteers, 1.5 mg daily for 20 days): no negative side effects | average level of side effects in clinical reports ([1]; nausea, seasickness, headache, vomiting, stomach cramps, diarrhea): 5% | long-term or late-appearing chronic toxicity ([1]; review of a total of 3740 patients): none of these cases noted any long-term or late-appearing chronic toxicity | EC50 [2]: 1.2 to 2.5 ng/mL (≈ 2.26 to 4.71 nM) | IC50 [3]: ~23 nM | order of Na+/K+-ATPase-inhibition [4]: Ouabain<Digoxin<Proscillaridin | HIF-1α accumulation induced by L-mimosone [5]: eliminated HIF-1α accumulation by L-mimosone | IC50 [6]: ~2.1 nM | HIF-1α expression ([7]; 0.1 μM): completely inhibits | HIF-1α expression ([7]; 1 μM): completely inhibits | bound to plasma protein [8]: about 85% | TGI [9]: about 87% | LD50 p.o. ([10]; adult): 0.25 mg/kg | LD50 p.o. ([10]; young animals (female)): 76 mg/kg | IC50 [11]: ~130 nM | TGI ([12]; BNC-4 5 mg/ml s.c. pump): 43% | TGI ([12]; BNC-4 15 mg/ml s.c. pump): 73% | Tmax [13, 18]: 48 ± 30 min | median AUC [13, 18]: 385.0 ± 43.6 ng·h/mL | median Cmax [13, 18]: 23.5 ± 2.6 ng/mL | plasma half-life in human ([13]; according to the literature): about 40 hours | measurable unconjugated drug as share of the administered quantity ([13]; after oral administration): 7% | median plasma half-life (T1/2) ([13]; cardiac patients): up to 49 hours | absolute bioavailability ([13]; dosage form with acid-resistant (enteric) coating): about 35% | Volume-of-Distribution (VD) ([13]; in vivo): 562 L | daily clearance ([13]; in vivo): ~35% | drug and its metabolites excreted by the bile ([13]; in vivo): Greater than 99% | total level of metabolism ([13]; in vivo): > 95% | unchanged drug excreted by the kidneys ([13]; in vivo): less than 1% | time of second, longer-lasting blood level peak ([13]; oral): about 1 hour | time of third plasma peak after dosing ([13]; oral): about 10 hours | higher absorption with decreased stomach acid production ([13]; patients taking antacids): up to 60% | oral absorption, accepted median ([13]; simple oral formulations): about 20% | intravenous toxicity [14]: 0.193 mg/kg | effect on Gemcitabine-induced reporter activity [15]: significantly shift the reporter activity to the left | TGI (tumor growth inhibition) [16]: greater than 60% | secretion of VEGF in tumor cells [17]: directly or indirectly inhibits
